The values that follow come from patent publication US4421745A, “Antiepileptics” (Takeda Chemical Industries, Ltd., priority 1981, dated 1983).

Data set [1] has as its system West's syndrome. The experiment in a line: Clinical Case 6: DN-1417 treatment of epileptic patient. Type of data set: in vivo, human. To be noted: for Frequency of seizure occurrences: before DN-1417. On the procedure:
Nitrazepam in dosage of 1.5 mg./day was administered in three divided doses to show less frequency of the seizure occurrences (from 10 times a day to 6-7 times a day). […] The drowsiness was fairly ameliorated but the frequency of the seizure occurrences was not reduced (10 times a day).
DN-1417 in dosage of 0.03 mg./kg. (0.3 mg./day) was intravenously given for 22 days in addition to the treatment with nitrazepam in dosage of 0.6 mg./day.

Data set [2] relates to Lennox's syndrome. Nature of the data set: Clinical Case 3: DN-1417 treatment of epileptic patient. Type of data set: in vivo, human. On the procedure: During the period from July 22 to Aug. 4, 1981, 1 mg of DN-1417 was administered intramuscularly once daily for 14 consecutive days, concomitantly with the antipileptics so far employed.
Data set [3] can be described thus: Blood concentrations of antiepileptics in Case 3. The source says:
The treatment consisted of a multiple drug therapy using phenytoin, phenobarbital, sodium valproate, nitrazepam and clonazepam.

In data set [4] the test system is degenerative myoclonus epilepsy. Nature of the data set: Clinical Case 1: DN-1417 treatment of epileptic patient. Type of data set: in vivo, human. On the procedure:
They were given DN-1417, 2 mg. i.m. at 10:00 A.M. every day for 2 weeks concomitantly with the prior antiepileptics.

Data set [5] deals with epilepsy, tuberous sclerosis (tonic convulsion and atypical absence). The experiment in a line: Clinical Case 2: DN-1417 treatment of epileptic patient. Type of data set: in vivo, human. On the procedure: In conjunction with the antiepileptic drugs so far used, DN-1417 was administered intramuscularly in doses of 0.5 mg. for 10 days and, then, in doses of 1 mg. for 4 days.

Data set [6] deals with epilepsy (tonic convulsion, tonoclonic convulsion and clonic convulsion). The experiment in a line: Clinical Case 4: DN-1417 treatment of epileptic patient. Type of data set: in vivo, human. On the procedure:
During the period from July 22 to Aug. 4, 1981, DN-1417 was administered intramuscularly in daily doses of 1 mg. for 14 days, together with the antiepileptics so far employed.

Data set [7] has as its system temporal lobe epilepsy. The experiment in a line: Clinical Case 5: DN-1417 treatment of epileptic patient. Type of data set: in vivo, human. On the procedure: In addition to the prior medication of antiepileptics (10 tablets of HYDANTOL F® each containing 25 mg. phenytoin, 8 mg. phenobarbital and 17 mg. caffeine and sodium benzoate, 1 g. of carbamazepine, 0.09 g. of phenobarbital and 250 mg. of actazolamide), DN-1417 was intramuscularly administered in dose of 1 mg./day for 2 weeks. […] From the 7th day of the DN-1417 treatment they began to explain their conditions as, "The time to get off the bed from awaking has been shortened." and "Became easy to get to the next action in doing anything."Improvement of such psychic symptoms was maintained for a week after the end of the DN-1417 treatment. Automatism occurred a week after the end of the DN-1417 treatment and impaired-consciousness seizure occurred twice in the 3rd week of post-treatment.

Consider `O=C1CN=C(c2ccccc2)c2cc([N+](=O)[O-])ccc2N1` [Nitrazepam, nitrazepam, reference compound], for which, in data set [1] (nitrazepam 1.5 mg/day), the Adverse effects entry is “Severe drowsiness and stridor”. The “Frequency of seizure occurrences” value in data set [1] (nitrazepam 1.5 mg/day in three divided doses) is given as 6-7 times a day; in data set [1] (nitrazepam reduced to 0.6 mg/day) it was 10 times a day.
With “ACTH: ACTH therapy; adrenocorticotropic hormones (SYSMEHFRWGKPVGKKRRPVKVYPNGAEDESAEAFPLEF; Corticotropin; UniProt P01189 138-176, looked up) [reference compound]”, the “Effect of ACTH therapy” value in data set [2] (before DN-1417) was “with no avail”.
In data set [3] (in vivo), `O=C1NC(=O)C(c2ccccc2)(c2ccccc2)N1` [phenytoin] displayed a Blood concentration of 9000 ng/mL.
`O=C1CN=C(c2ccccc2Cl)c2cc([N+](=O)[O-])ccc2N1` [clonazepam, reference compound]: the Myoclonus at rest entry in data set [4] (clonazepam 2 mg daily combined with other antiepileptics, before DN-1417) is “almost complete disappearance”.
Regarding `NC(=O)[C@@H]1CCCN1C(=O)[C@H](Cc1c[nH]cn1)NC(=O)[C@@H]1CCC(=O)O1.O=C(O)CC(O)(CC(=O)O)C(=O)O` [DN-1417, (S)-γ-butyrolactone-γ-carbonyl-L-histidyl-L-prolinamide citrate], the Overall clinical effect result is “decreased incidence of clinical episodes, improved EEG findings and remarkable improvements in daily life” in data set [2]; “remarkable improvements in daily activity and improvements in clinical episode and EEG” in data set [5]; “effective in improving myoclonus, cerebellar symptoms, psychic activity and EEG” in data set [4] (2 mg i.m. daily for 2 weeks with prior antiepileptics); “effective for West's syndrome” in data set [1]; “effective in this patient” in data set [7]. Besides, the Side effect result is reported as “no side effect” in data set [2], “no side effect” in data set [5], “without any side effect” in data set [4] (2 mg daily for 2 weeks) and “no apparent side effect” in data set [6]. In addition, the Clinical episodes entry is reported as “no clinical episode” in data set [2] (1 mg i.m. once daily for 14 days with prior antiepileptics, after one week); “one episode of atypical absence” in data set [2] (after 2 weeks); “No clinical episode” in data set [2] (one week after withdrawal); “no clinical episodes” in data set [5] (after 2 weeks); “No clinical episodes” in data set [5] (i.m. 0.5 mg for 10 days then 1 mg for 4 days with prior antiepileptics, after one week). The EEG result in data set [2] (after 2 weeks) is “no polyspike-and-slow wave complex and only a decreased sharp-and-slow wave complex”; in data set [2] (after one week), “decrease in polyspike-and-slow wave complex but an increase in sharp-and-slow wave complex”; in data set [2] (one week after withdrawal), “less bursts, with an increased regularity of basal wave”; in data set [5] (after 2 weeks, EEG at sleep) it was “frequency of paroxymal patterns was halved”; in data set [4] (3rd day of treatment), “No improvement”; in data set [1] (2 weeks after the DN-1417 treatment), “did not show hypsarhythmia”. Also, the EEG result in data set [1] (after a week) is on record as “remained unchanged”; in data set [6] (after 2 weeks) it was “fair improvement in continuity, with a regularity”; in data set [6] (after one week), “remarkable improvement”. Besides, in data set [4], the “Time after withdrawal until photomyoclonic response reappeared” value was “about 80 days”. The “Type of action from EEG changes and clinical symptoms” value in data set [4] is reported as “antimyoclonic action though not a definite anticonvulsive action”. Further, the “Continuation of clinical improvement after withdrawal of the drug” value in data set [4] (2 mg daily for 2 weeks) was “about 1 month”. In addition, the “Persistence of marked EEG improvements” value in data set [4] (after 2nd EEG at day 8 of treatment) is reported as “about 50 days”. For the same compound, the “EEG response to photic stimulation” value in data set [4] (day 8 of treatment) is “entirely normal”. The Drowsiness entry in data set [1] (after a week) was “drowsiness due to nitrazepam was reduced”. Further, the Seizure frequency in data set [1] (from the 2nd week of treatment, same at the 3rd week) was 5-6 times a day. In data set [1] (whole course), the Side effects entry is on record as “No side effects”. Also, the “Activities of daily life and mental condition (summary)” value in data set [6] is recorded as “A remarkable improvement”. For the same compound, the “Clinical seizures (summary)” value in data set [6] is “No change or a slight improvement”. Besides, in data set [6], the “EEG (summary)” value is “A moderate improvement”. Further, the Overall evaluation result in data set [6] is listed as “moderate improvement”. Further, the Epileptic seizures entry is “No epileptic seizure” in data set [6] (1 mg i.m. daily for 14 days with prior antiepileptics, after one week) and “No epileptic seizure” in data set [6] (after 2 weeks). In data set [6] (three weeks after withdrawal), the Seizures after withdrawal result is recorded as “Clonic convulsion appeared on day 6 after withdrawal”. Besides, the EEG findings result in data set [7] is given as “No noteworthy change”. The “Seizures during the treatment” value in data set [7] (1 mg/day i.m. for 2 weeks with prior antiepileptics) is recorded as “autonomic seizure occurred once”. In addition, the “Psychic symptoms such as decrease of volition” value in data set [7] (during DN-1417 treatment) is “improved”.
Turning to `CCC1(c2ccccc2)C(=O)NC(=O)NC1=O` [phenobarbital], the Blood concentration in data set [3] (Case 3, after 2 weeks of DN-1417 1 mg i.m. daily with the antiepileptics) amounted to 24600 ng/mL; in data set [3] (Case 3, multiple drug therapy before DN-1417), 18900 ng/mL.
Take `CCCC(CCC)C(=O)[O-].[Na+]` [sodium valproate, reference compound]: the Convulsions entry in data set [4] (after about 3 months on sodium valproate, before DN-1417) was “convulsions were inhibited”. Besides, in data set [4] (on sodium valproate, before DN-1417), the Myoclonus result is “remained prominent”. Moreover, in data set [3] (in vivo), the Blood concentration turned out to be 36000 ng/mL.
